The structures appear in SMILES notation. pIC50: −log10 of the molar value.

As usually defined, the pIC50 is the negative decadic logarithm of the IC50, by convention in mol/L. Low values mean a large IC50, high ones a small IC50. Usually inhibition stands for the share of the control response that was lost under treatment. A high value points to a response far below the control. In general, Cmax refers to the maximum level reached in the sampled fluid or tissue.

For data set [1], the target named is T1, Solute carrier family 22 member 3 (Homo sapiens, UniProt O75751).
T1 sequence (O75751 whole entry): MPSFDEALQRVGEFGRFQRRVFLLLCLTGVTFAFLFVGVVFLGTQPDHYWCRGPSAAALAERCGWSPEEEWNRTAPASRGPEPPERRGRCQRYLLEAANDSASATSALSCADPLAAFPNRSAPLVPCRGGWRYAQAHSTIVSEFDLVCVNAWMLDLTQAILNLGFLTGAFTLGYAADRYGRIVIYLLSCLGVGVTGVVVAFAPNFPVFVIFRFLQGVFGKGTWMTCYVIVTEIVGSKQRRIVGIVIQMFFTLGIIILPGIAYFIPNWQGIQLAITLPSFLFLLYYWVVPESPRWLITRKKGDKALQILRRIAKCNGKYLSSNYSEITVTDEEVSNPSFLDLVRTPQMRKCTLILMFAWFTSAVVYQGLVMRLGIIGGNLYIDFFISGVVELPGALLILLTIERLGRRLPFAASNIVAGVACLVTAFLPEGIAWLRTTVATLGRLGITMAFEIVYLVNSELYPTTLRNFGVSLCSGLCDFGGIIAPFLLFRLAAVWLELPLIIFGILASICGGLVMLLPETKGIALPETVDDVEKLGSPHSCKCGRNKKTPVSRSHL
Kind of data set: Inhibition of human OCT3-mediated ASP+ uptake expressed in HEK293 cells after 3 mins by fluorescence assay. The format is cell-based.

Data set [2] has as its target T2, Solute carrier family 22 member 1 (Homo sapiens, UniProt O15245).
T2 sequence (O15245 whole entry): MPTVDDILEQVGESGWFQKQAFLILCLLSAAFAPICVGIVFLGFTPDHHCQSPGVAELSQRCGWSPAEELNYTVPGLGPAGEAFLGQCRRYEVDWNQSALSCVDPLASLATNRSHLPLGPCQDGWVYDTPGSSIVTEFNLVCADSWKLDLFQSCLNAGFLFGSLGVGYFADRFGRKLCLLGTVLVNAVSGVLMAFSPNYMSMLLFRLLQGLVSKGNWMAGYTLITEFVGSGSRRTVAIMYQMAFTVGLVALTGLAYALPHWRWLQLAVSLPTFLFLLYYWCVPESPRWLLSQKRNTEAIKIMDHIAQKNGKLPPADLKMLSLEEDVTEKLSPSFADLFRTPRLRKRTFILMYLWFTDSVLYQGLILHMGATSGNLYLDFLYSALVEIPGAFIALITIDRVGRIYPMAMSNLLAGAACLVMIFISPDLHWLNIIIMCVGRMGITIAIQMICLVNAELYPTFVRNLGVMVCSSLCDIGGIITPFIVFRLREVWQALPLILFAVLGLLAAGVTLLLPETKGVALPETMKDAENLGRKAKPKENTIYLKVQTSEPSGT
Nature of the data set: Inhibition of human OCT1-mediated ASP+ uptake expressed in HEK293 cells after 3 mins by fluorescence assay. The format is cell-based.

The target of data set [3] is T3, Solute carrier family 22 member 2 (Homo sapiens, UniProt O15244).
T3 sequence (O15244 whole entry): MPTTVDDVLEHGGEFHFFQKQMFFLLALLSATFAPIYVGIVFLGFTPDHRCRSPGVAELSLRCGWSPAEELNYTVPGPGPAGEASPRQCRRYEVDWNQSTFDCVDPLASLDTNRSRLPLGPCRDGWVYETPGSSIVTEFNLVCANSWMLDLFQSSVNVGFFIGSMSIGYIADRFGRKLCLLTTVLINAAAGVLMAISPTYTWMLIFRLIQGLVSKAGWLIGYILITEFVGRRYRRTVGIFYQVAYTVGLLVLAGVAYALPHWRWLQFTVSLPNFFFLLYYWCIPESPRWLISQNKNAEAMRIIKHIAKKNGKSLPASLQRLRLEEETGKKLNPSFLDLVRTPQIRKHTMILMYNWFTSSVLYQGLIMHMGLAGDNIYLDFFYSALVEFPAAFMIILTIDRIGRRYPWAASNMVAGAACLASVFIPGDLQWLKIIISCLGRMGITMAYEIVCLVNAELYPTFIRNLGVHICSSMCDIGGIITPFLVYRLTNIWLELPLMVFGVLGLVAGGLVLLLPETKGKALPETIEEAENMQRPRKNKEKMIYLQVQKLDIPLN
Kind of data set: Inhibition of human OCT2-mediated ASP+ uptake expressed in HEK293 cells after 3 mins by fluorescence assay. The format is cell-based.

In data set [4] the target is T4, Multidrug and toxin extrusion protein 2 (Homo sapiens, UniProt Q86VL8).
T4 sequence (Q86VL8 whole entry): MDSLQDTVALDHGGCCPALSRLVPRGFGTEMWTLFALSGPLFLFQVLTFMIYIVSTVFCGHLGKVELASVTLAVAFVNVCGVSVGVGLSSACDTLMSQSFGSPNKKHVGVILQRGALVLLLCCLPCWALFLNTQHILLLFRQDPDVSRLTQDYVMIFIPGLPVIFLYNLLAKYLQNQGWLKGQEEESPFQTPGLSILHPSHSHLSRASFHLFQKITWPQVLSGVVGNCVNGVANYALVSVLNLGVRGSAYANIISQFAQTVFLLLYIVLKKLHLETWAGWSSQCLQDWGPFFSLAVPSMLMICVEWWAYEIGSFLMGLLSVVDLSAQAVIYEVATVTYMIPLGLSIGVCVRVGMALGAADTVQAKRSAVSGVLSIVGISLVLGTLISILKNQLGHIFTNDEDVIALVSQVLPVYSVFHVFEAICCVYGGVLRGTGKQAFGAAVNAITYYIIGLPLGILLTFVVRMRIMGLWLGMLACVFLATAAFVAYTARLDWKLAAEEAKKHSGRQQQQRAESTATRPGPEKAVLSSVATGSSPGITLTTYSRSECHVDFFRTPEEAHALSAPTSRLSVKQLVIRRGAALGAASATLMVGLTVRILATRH
Kind of data set: Inhibition of human MATE2K-mediated ASP+ uptake expressed in HEK293 cells after 1.5 mins by fluorescence assay. In kind it is cell-based.

In data set [5] the target is T5, Multidrug and toxin extrusion protein 1 (Homo sapiens, UniProt Q96FL8).
T5 sequence (Q96FL8 whole entry): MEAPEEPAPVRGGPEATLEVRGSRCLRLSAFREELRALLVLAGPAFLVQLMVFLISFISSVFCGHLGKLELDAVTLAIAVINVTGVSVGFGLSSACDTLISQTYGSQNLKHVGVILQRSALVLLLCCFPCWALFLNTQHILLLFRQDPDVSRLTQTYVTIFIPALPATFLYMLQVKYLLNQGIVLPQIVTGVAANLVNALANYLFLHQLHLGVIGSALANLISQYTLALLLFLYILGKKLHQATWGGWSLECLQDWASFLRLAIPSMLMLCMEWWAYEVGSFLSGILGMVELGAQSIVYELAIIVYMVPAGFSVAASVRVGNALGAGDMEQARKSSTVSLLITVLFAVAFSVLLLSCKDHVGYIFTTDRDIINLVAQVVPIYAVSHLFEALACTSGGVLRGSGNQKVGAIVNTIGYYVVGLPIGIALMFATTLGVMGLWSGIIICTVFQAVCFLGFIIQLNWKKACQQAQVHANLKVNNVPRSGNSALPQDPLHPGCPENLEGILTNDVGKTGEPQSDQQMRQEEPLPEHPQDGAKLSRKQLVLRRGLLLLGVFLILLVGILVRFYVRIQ
Kind of data set: (§1) Inhibition of human MATE1-mediated ASP+ uptake expressed in HEK293 cells at 20 uM after 1.5 mins by fluorescence assay. The format is cell-based. The settings on record: hek293, […], 20 µM.

In data set [6] the target is T4, Multidrug and toxin extrusion protein 2. Nature of the data set: Inhibition of human MATE2K-mediated ASP+ uptake expressed in HEK293 cells up to 500 uM after 1.5 mins by fluorescence assay. The format is cell-based. The settings on record: for INH: human, hek293, […].
Data set [7] concerns the target T6, MATE1 (multidrug and toxin extrusion protein 1) (Homo sapiens, UniProt Q96FL8).
T6 sequence (Q96FL8 whole entry): T5 sequence (Q96FL8 whole entry)
Described as §1. The format is cell-based. The settings on record: HEK293 cells expressing human MATE1, probe ASP+.

Data set [8] has as its target T5, Multidrug and toxin extrusion protein 1. Kind of data set: Inhibition of human MATE1-mediated ASP+ uptake expressed in HEK293 cells after 1.5 mins by fluorescence assay. In kind it is cell-based.
The nature of data set [9]: Cmax in iv dosed human. The settings on record: in vivo. Further details: route intravenous; call rule not given here. In kind it is ADME, organism-based.
The nature of data set [10]: Cmax in human at 40 mg, po after 7 days. In kind it is ADME, organism-based. Further details: dose 40 mg, route oral. The settings on record: in vivo.
Data set [11] has as its target T5, Multidrug and toxin extrusion protein 1. Nature of the data set: Inhibition of human MATE1-mediated [14]-metformin uptake expressed in polarized MDCK2 cells after 5 mins by liquid scintillation counting analysis. The format is cell-based, MDCK-II.
For data set [12] the target is unchanged. Kind of data set: Inhibition of human MATE1-mediated [14]-metformin uptake expressed in HEK293 cells after 1.5 mins by scintillation counting analysis. The format is cell-based.

In the case of `CC(C)(C)NC(=O)[C@@H]1CN(Cc2cccnc2)CCN1C[C@@H](O)C[C@@H](Cc1ccccc1)C(=O)N[C@H]1c2ccccc2C[C@H]1O`, the negative-log IC50 (pIC50) in data set [1] was less than 3.30; in [2] it was 3.68; in data set [3], 3.85.
As for `Oc1c(Cl)cc(Cl)cc1Sc1cc(Cl)cc(Cl)c1O` [BITHIONOL], the negative logarithm of the IC50 (pIC50) in [1] is 5.26; in data set [2], 5.41; in data set [3], 5.72; in data set [4], 5.18. The compound further displayed an INH in data set [5] of 87%.
On to `COc1ccccc1OCCNCC(O)COc1cccc2[nH]c3ccccc3c12` (stereo unspecified) [CARVEDILOL], for which the INH entry in [6] is on record as “Not Active”. The values for the pIC50 in [3] and in data set [8] were 5.12 and 4.03, respectively. The inhibition at […], 20 µM in data set [7] came to 21%.
As for `[H]/N=C(\N/C(=N/[H])NCCCCCCNC(=N)NC(=N)Nc1ccc(Cl)cc1)Nc1ccc(Cl)cc1` [CHLORHEXIDINE], the pIC50 was 6.39 in data set [1]; 6.68 in data set [2]; 6.40 in [3]; 6.30 in [4]; 6.15 in data set [8]. This compound also showed an INH in [5] of 86%.
Consider `NC(N)=Nc1nc(CSCCC(N)=NS(N)(=O)=O)cs1` [FAMOTIDINE], for which the pIC50 in data set [1] is 4.97; in [2], less than 3.52; in [3], 4.44; in [4] it was 4.44; in [8], 6.12.
Consider `CCc1c2c(nc3ccc(OC(=O)N4CCC(N5CCCCC5)CC4)cc13)-c1cc3c(c(=O)n1C2)COC(=O)[C@]3(O)CC` [IRINOTECAN], for which the negative-log IC50 (pIC50) is 4.13 in [1], 4.68 in data set [2] and 5.57 in data set [3]. This compound gave an inhibition at […], 20 µM in data set [7] of 49%.
In the case of `O=C1c2c(O)ccc(O)c2C(=O)c2c(NCCNCCO)ccc(NCCNCCO)c21` [MITOXANTRONE], the pIC50 in data set [1] was 4.22; in [2], 4.36; in [3], 4.13.
In the case of `Cn1c(NCCN(CCO)CCCc2ccc([N+](=O)[O-])cc2)cc(=O)n(C)c1=O` [NIFEKALANT], the Cmax in data set [9] was found to be 3.43 µM. The pIC50 was 3.84 in data set [1], less than 3.52 in data set [2] and 4.99 in [3].
Regarding `COc1ccc2c(c1OC)C(=O)O[C@@H]2[C@H]1c2c(cc3c(c2OC)OCO3)CCN1C` [NOSCAPINE], the INH result in [6] is on record as “Not Active”. Besides, the negative logarithm of the IC50 (pIC50) in data set [3] is 5.59. In data set [7], this compound displayed an inhibition at […], 20 µM of 13.4%.
Consider `Cc1nccn1CC1CCc2c(c3ccccc3n2C)C1=O` (stereo unspecified) [ONDANSETRON], for which the pIC50 in data set [1] is 4.76; in data set [2] it was less than 3.52.
In [10], `COc1ccnc(C[S+]([O-])c2nc3ccc(OC(F)F)cc3[nH]2)c1OC` (stereo unspecified) [PANTOPRAZOLE] displayed a peak concentration (Cmax) of 5.45 µM. The pIC50 in data set [11] was 5.55; in [12], 5.55; in data set [6] it was 4.36; in [1], 3.86; in [2], less than 3.30; in data set [3], 5.82. The values for the pIC50 in data set [4] and in data set [8] were less than 3.30 and 4.36, respectively.
On to `N=C(N)c1ccc(OCCCCCOc2ccc(C(=N)N)cc2)cc1` [PENTAMIDINE], for which the pIC50 in data set [1] is 5.02; in data set [2] it was 4.66; in [3], 5.92.
